This note sets out measurements from the supplement of paper PMC10307832.

What all share (assay): relative viability (nuclei count vs DMSO), 5 days (fraction); higher = more cells survive
Compound in assay [1]: CC[C@H](C)N1C=C(C2=C(C=C(C=C21)C3=CN=C(C=C3)N4CCNCC4)C(=O)NCC5=C(C=C(NC5=O)C)C)C [GSK126] + CC(=O)Nc1cccc(-n2c(=O)n(C3CC3)c(=O)c3c(Nc4ccc(I)cc4F)n(C)c(=O)c(C)c32)c1 [Trametinib] (partner 0.02 µM)
In short, it runs like this:
(§1)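 Lung cancer cell lines in 1536-well plates were dosed by pin tool the day after seeding, either with one drug alone or with a fixed anchor-drug dose plus five library-drug doses (not always all listed) in √10 steps. After 5 days, cells were fixed and their nuclei stained in one step (final 0.05% Triton X-100, 1% formaldehyde, 1 ug/ml Hoechst), then counted on 4× images. Relative viability is the nuclei count in treated wells divided by that in vehicle wells. Values are medians of duplicate plates.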

Compound in assay [2]: C1CC(C1)(C(=O)O)C(=O)O.[NH2-].[NH2-].[Pt+2] [Carboplatin] + Cc1cc(Nc2cc(N3CCN(C)CC3)nc(Sc3ccc(NC(=O)C4CC4)cc3)n2)n[nH]1 [Tozasertib] (partner 0.1 µM)
In a few lines: as §1

Compound in assay [3]: NS(=O)(=O)OC[C@@H]1C[C@@H](n2ccc3c(N[C@H]4CCc5ccccc54)ncnc32)C[C@@H]1O [MLN4924] + Cc1nc(Nc2ncc(C(=O)Nc3c(C)cccc3Cl)s2)cc(N2CCN(CCO)CC2)n1 [Dasatinib] (partner 0.075 µM)
In a few lines: as §1

Compound in assay [4]: CC[C@H](C)N1C=C(C2=C(C=C(C=C21)C3=CN=C(C=C3)N4CCNCC4)C(=O)NCC5=C(C=C(NC5=O)C)C)C [GSK126] + Nc1nc2[nH]cc(CCc3ccc(C(=O)N[C@@H](CCC(=O)O)C(=O)O)cc3)c2c(=O)[nH]1 [Pemetrexed] (partner 0.2 µM)
In short, it runs like this: as §1

Consider NCI-H838, for which the relative viability in assay [1] (first compound 0.08 µM) is 0.58; in assay [1] (first compound 0.253 µM), 0.51; in assay [1] (first compound 0.8 µM), 0.437; in assay [1] (first compound 2.53 µM) it was 0.477; in assay [1] (first compound 8 µM), 0.483; in assay [2] (first compound 0.08 µM), 0.296. The relative viability came to 0.28 in assay [2] (first compound 0.253 µM); 0.254 in assay [2] (first compound 0.8 µM); 0.273 in assay [2] (first compound 2.53 µM); 0.279 in assay [2] (first compound 8 µM); 0.268 in assay [3] (first compound 0.04 µM); 0.271 in assay [3] (first compound 0.1265 µM). For the same cell line, the relative viability was 0.245 in assay [3] (first compound 0.4 µM); 0.199 in assay [3] (first compound 1.265 µM); 0.219 in assay [3] (first compound 4 µM); 0.245 in assay [4] (first compound 0.08 µM); 0.231 in assay [4] (first compound 0.253 µM); 0.229 in assay [4] (first compound 0.8 µM). Moreover, the relative viability in assay [4] (first compound 2.53 µM) stood at 0.239; in assay [4] (first compound 8 µM) it was 0.24.

As to NCI-H1355, the relative viability in assay [1] (first compound 0.08 µM) came to 0.435; in assay [1] (first compound 0.253 µM), 0.412; in assay [1] (first compound 0.8 µM), 0.4; in assay [1] (first compound 2.53 µM), 0.421; in assay [1] (first compound 8 µM), 0.468; in assay [2] (first compound 0.08 µM), 0.578. Further, the relative viability in assay [2] (first compound 0.253 µM) worked out at 0.616; in assay [2] (first compound 0.8 µM), 0.601; in assay [2] (first compound 2.53 µM), 0.489; in assay [2] (first compound 8 µM) it was 0.55; in assay [3] (first compound 0.04 µM), 0.715; in assay [3] (first compound 0.1265 µM), 0.792. The relative viability turned out to be 0.767 in assay [3] (first compound 0.4 µM); 0.481 in assay [3] (first compound 1.265 µM); 0.216 in assay [3] (first compound 4 µM); 1.15 in assay [4] (first compound 0.08 µM); 1.12 in assay [4] (first compound 0.253 µM); 0.996 in assay [4] (first compound 0.8 µM). Besides, the figures for the relative viability in assay [4] (first compound 2.53 µM) and in assay [4] (first compound 8 µM) were 1.03 and 1.06, respectively.

For NCI-H1395, the relative viability in assay [1] (first compound 0.08 µM) was 1.07; in assay [1] (first compound 0.253 µM) it was 0.955; in assay [1] (first compound 0.8 µM), 1.05; in assay [1] (first compound 2.53 µM), 0.994; in assay [1] (first compound 8 µM) it was 0.964; in assay [2] (first compound 0.08 µM), 0.721. The relative viability in assay [2] (first compound 0.253 µM) came to 0.733; in assay [2] (first compound 0.8 µM) it was 0.65; in assay [2] (first compound 2.53 µM) it was 0.646; in assay [2] (first compound 8 µM), 0.566; in assay [3] (first compound 0.04 µM) it was 0.474; in assay [3] (first compound 0.1265 µM), 0.493. The relative viability in assay [3] (first compound 0.4 µM) is 0.552; in assay [3] (first compound 1.265 µM), 0.507; in assay [3] (first compound 4 µM) it was 0.331; in assay [4] (first compound 0.08 µM), 0.942; in assay [4] (first compound 0.253 µM) it was 0.773; in assay [4] (first compound 0.8 µM), 0.867. The relative viability worked out at 0.988 in assay [4] (first compound 2.53 µM) and 0.759 in assay [4] (first compound 8 µM).

Regarding NCI-H1437, the relative viability came out at 0.507 in assay [1] (first compound 0.08 µM); 0.528 in assay [1] (first compound 0.253 µM); 0.494 in assay [1] (first compound 0.8 µM); 0.459 in assay [1] (first compound 2.53 µM); 0.501 in assay [1] (first compound 8 µM); 0.386 in assay [2] (first compound 0.08 µM). Also, the relative viability turned out to be 0.43 in assay [2] (first compound 0.253 µM); 0.403 in assay [2] (first compound 0.8 µM); 0.4 in assay [2] (first compound 2.53 µM); 0.401 in assay [2] (first compound 8 µM); 0.276 in assay [3] (first compound 0.04 µM); 0.456 in assay [3] (first compound 0.1265 µM). In addition, the relative viability came to 0.556 in assay [3] (first compound 0.4 µM); 0.235 in assay [3] (first compound 1.265 µM); 0.11 in assay [3] (first compound 4 µM); 0.298 in assay [4] (first compound 0.08 µM); 0.325 in assay [4] (first compound 0.253 µM); 0.306 in assay [4] (first compound 0.8 µM). Besides, the values for the relative viability in assay [4] (first compound 2.53 µM) and in assay [4] (first compound 8 µM) were 0.305 and 0.353, respectively.
